According to patent US20070219186A1, “Pyrazolo[1,5-A]pyrimidine derivatives and methods of use thereof” (priority 2006, published 2007):
Where two headings read alike, the source gives them in different places.

Target: T1, human B-Raf (Homo sapiens, UniProt P15056)
T1 construct: Flag; GST; made in house; host or cells: Sf9 insect cells (B-Raf); E. coli (MEK1-GST)
Assay: B-Raf Kinase to MEK1 ELISA
Format: biochemical
Conditions: for inhibition at 10 µM: read-out: % Inhib./10 uM
Procedure, shortened: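 Flag/GST-tagged human B-Raf (Sf9, ~20 ng/point) phosphorylates non-active GST-MEK1 (50 nM final) with ATP and MgCl2 in MOPS pH 7.2 buffer, 60 min at RT. Product is captured on anti-GST plates; MEK1 pSer217/221 is read by phospho-antibody plus europium conjugate (DELFIA).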

[1] = median, cpd concentrations from 10 μM to 30 nM in half log dilutions, read-out: Median IC50

T1 sequence (P15056 whole entry): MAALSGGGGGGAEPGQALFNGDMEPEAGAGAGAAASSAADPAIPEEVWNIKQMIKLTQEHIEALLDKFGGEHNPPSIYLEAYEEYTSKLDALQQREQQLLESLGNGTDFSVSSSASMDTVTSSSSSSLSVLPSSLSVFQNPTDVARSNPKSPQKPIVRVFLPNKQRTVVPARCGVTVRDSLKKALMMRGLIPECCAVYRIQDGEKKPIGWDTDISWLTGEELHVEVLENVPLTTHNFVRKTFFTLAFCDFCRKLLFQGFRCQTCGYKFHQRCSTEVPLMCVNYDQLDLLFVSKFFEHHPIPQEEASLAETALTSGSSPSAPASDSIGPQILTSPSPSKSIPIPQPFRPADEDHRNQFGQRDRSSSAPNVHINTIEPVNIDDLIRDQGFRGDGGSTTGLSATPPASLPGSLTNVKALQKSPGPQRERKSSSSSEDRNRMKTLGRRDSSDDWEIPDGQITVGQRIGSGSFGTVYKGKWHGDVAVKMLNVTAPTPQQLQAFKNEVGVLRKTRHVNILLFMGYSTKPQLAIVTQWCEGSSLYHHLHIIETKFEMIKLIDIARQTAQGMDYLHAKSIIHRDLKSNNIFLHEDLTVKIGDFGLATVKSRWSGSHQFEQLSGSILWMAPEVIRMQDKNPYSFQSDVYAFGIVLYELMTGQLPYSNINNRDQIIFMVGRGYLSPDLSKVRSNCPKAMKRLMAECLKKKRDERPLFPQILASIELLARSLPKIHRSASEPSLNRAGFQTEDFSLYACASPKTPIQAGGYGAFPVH

| SMILES | IC50 [1] [nM] | inhibition at 10 µM [%] | IC50 [nM] | % Inhib./10 uM (single point assay, 10 uM) [%] |
| --- | --- | --- | --- | --- |
| CCOC(=O)c1cnn2c(-c3ccc(OC)c(NC(=O)c4ccc(C)c(C(F)(F)F)c4)c3)ccnc12 [Example 107, ethyl 7-(4-methoxy-3-{[4-methyl-3-(trifluoromethyl)benzoyl]amino}phenyl)pyrazolo[1,5-a]pyrimidine-3-carboxylate] | > 10000 | 0 | – | – |
| CCOC(=O)c1cnn2c(-c3ccc(OCc4ccccc4)c(NC(=O)c4ccc(C)c(C(F)(F)F)c4)c3)ccnc12 [Example 108, ethyl 7-(4-(benzyloxy)-3-{[4-methyl-3-(trifluoromethyl)benzoyl]amino}phenyl)pyrazolo[1,5-a]pyrimidine-3-carboxylate] | > 10000 | 20 | – | – |
| CN(C)CCCc1cc2nccc(-c3cccc(NC(=O)c4cccc(C(F)(F)F)c4)c3)n2n1 [Example 110, N-(3-{2-[3-(dimethylamino)propyl]pyrazolo[1,5-a]pyrimidin-7-yl}phenyl)-3-(trifluoromethyl)benzamide] | > 10000 | 24 | – | – |
| O=C(Nc1cccc(-c2ccnc3cc(-c4ccccn4)nn23)c1)c1cccc(C(F)(F)F)c1 [Example 111, N-[3-(2-pyridin-2-ylpyrazolo[1,5-a]pyrimidin-7-yl)phenyl]-3-(trifluoromethyl)benzamide] | > 3000 | 24 | – | – |
| Cc1cc2nccc(-c3cccc(NC(=O)c4cccc(C(F)(F)F)c4)c3)n2n1 [Example 112, N-[3-(2-methylpyrazolo[1,5-a]pyrimidin-7-yl)phenyl]-3-(trifluoromethyl)benzamide] | > 10000 | 26 | – | – |
| O=C(Nc1cccc(-c2ccnc3cc(-c4ccco4)nn23)c1)c1cccc(C(F)(F)F)c1 [Example 113, N-{3-[2-(2-furyl)pyrazolo[1,5-a]pyrimidin-7-yl]phenyl}-3-(trifluoromethyl)benzamide] | > 10000 | 45 | – | – |
| O=C(Nc1cccc(-c2ccnc3cc(-c4ccc(Cl)cc4)nn23)c1)c1cccc(C(F)(F)F)c1 [Example 115, N-{3-[2-(4-chlorophenyl)pyrazolo[1,5-a]pyrimidin-7-yl]phenyl}-3-(trifluoromethyl)benzamide] | > 10000 | 24 | – | – |
| Cc1cc2nccc(-c3cccc(NC(=O)c4ccc(C)c(C(F)(F)F)c4)c3)n2n1 [Example 116, 4-methyl-N-[3-(2-methylpyrazolo[1,5-a]pyrimidin-7-yl)phenyl]-3-(trifluoromethyl)benzamide] | > 10000 | 31 | – | – |
| Cc1ccc(C(=O)Nc2cccc(-c3ccnc4cc(-c5cccs5)nn34)c2)cc1C(F)(F)F [Example 117, 4-methyl-N-{3-[2-(2-thienyl)pyrazolo[1,5-a]pyrimidin-7-yl]phenyl}-3-(trifluoromethyl)benzamide] | > 10000 | 24 | – | – |
| Cc1ccc(C(=O)Nc2cccc(-c3ccnc4cc(-c5ccc(Cl)cc5)nn34)c2)cc1C(F)(F)F [Example 118, N-{3-[2-(4-chlorophenyl)pyrazolo[1,5-a]pyrimidin-7-yl]phenyl}-4-methyl-3-(trifluoromethyl)benzamide] | > 10000 | 22 | – | – |
| Cc1ccc(C(=O)Nc2cccc(-c3ccnc4cc(-c5ccccc5)nn34)c2)cc1C(F)(F)F [Example 119, 4-methyl-N-[3-(2-phenylpyrazolo[1,5-a]pyrimidin-7-yl)phenyl]-3-(trifluoromethyl)benzamide] | > 10000 | 29 | – | – |
| O=C(Nc1cccc(-c2ccnc3c(C(=O)NCCCn4ccnc4)cnn23)c1)Nc1ccc(Cl)c(C(F)(F)F)c1 [Example 120, 7-{3-[({[4-chloro-3-(trifluoromethyl)phenyl]amino}carbonyl)amino]phenyl}-N-[3-(1H-imidazol-1-yl)propyl]pyrazolo[1,5-a]pyrimidine-3-carboxamide] | 120 | 92 | – | – |
| COCCCNC(=O)c1cnn2c(-c3cccc(NC(=O)Nc4ccc(Cl)c(C(F)(F)F)c4)c3)ccnc12 [Example 121, 7-{3-[({[4-chloro-3-(trifluoromethyl)phenyl]amino}carbonyl)amino]phenyl}-N-(3-methoxypropyl)pyrazolo[1,5-a]pyrimidine-3-carboxamide] | 190 | 92 | – | – |
| CCN(CC)CCNC(=O)c1cnn2c(-c3cccc(NC(=O)Nc4ccc(Cl)c(C(F)(F)F)c4)c3)ccnc12 [Example 122, 7-{3-[({[4-chloro-3-(trifluoromethyl)phenyl]amino}carbonyl)amino]phenyl}-N-[2-(diethylamino)ethyl]pyrazolo[1,5-a]pyrimidine-3-carboxamide] | – | 83 | 140 | – |
| O=C(Nc1cccc(-c2ccnc3c(C(=O)NCCN4CCOCC4)cnn23)c1)Nc1ccc(Cl)c(C(F)(F)F)c1 [Example 123, 7-{3-[({[4-chloro-3-(trifluoromethyl)phenyl]amino}carbonyl)amino]phenyl}-N-(2-morpholin-4-ylethyl)pyrazolo[1,5-a]pyrimidine-3-carboxamide] | – | 93 | 120 | – |
| O=C(Nc1cccc(-c2ccnc3c(C(=O)OCC(F)(F)F)cnn23)c1)c1cccc(C(F)(F)F)c1 [Example 125, 2,2,2-trifluoroethyl 7-(3-{[3-(trifluoromethyl)benzoyl]amino}phenyl)pyrazolo[1,5-a]pyrimidine-3-carboxylate] | 900 | 67 | – | – |
| O=C(Nc1cccc(-c2ccnc3c(C(=O)Oc4cccnc4)cnn23)c1)c1cccc(C(F)(F)F)c1 [Example 126, pyridin-3-yl 7-(3-{[3-(trifluoromethyl)benzoyl]amino}phenyl)pyrazolo[1,5-a]pyrimidine-3-carboxylate] | > 10000 | 17 | – | – |
| CN(C)CCOC(=O)c1cnn2c(-c3cccc(NC(=O)c4cccc(C(F)(F)F)c4)c3)ccnc12 [Example 127, 2-(dimethylamino)ethyl 7-(3-{[3-(trifluoromethyl)benzoyl]amino}phenyl)pyrazolo[1,5-a]pyrimidine-3-carboxylate] | 7070 | 54 | – | – |
| COCCOC(=O)c1cnn2c(-c3cccc(NC(=O)c4cccc(C(F)(F)F)c4)c3)ccnc12 [Example 128, 2-methoxyethyl 7-(3-{[3-(trifluoromethyl)benzoyl]amino}phenyl)pyrazolo[1,5-a]pyrimidine-3-carboxylate] | 116 | 68 | – | – |
| O=C(Nc1cccc(-c2ccnc3cc(-c4ccncc4)nn23)c1)c1ccc(Cl)c(C(F)(F)F)c1 [Example 129, 4-chloro-N-[3-(2-pyridin-4-ylpyrazolo[1,5-a]pyrimidin-7-yl)phenyl]-3-(trifluoromethyl)benzamide] | – | 86 | 50 | – |
| COc1ccc(C(=O)Nc2cccc(-c3ccnc4cc(-c5ccncc5)nn34)c2)cc1C(F)(F)F [Example 130, 4-methoxy-N-[3-(2-pyridin-4-ylpyrazolo[1,5-a]pyrimidin-7-yl)phenyl]-3-(trifluoromethyl)benzamide] | 70 | 91 | – | – |
| O=C(Nc1cccc(-c2ccnc3cc(-c4ccncc4)nn23)c1)Nc1ccc(F)c(C(F)(F)F)c1 [Example 131, N-[4-fluoro-3-(trifluoromethyl)phenyl]-N′-[3-(2-pyridin-4-ylpyrazolo[1,5-a]pyrimidin-7-yl)phenyl]urea] | 30 | 98 | – | – |
| O=C(Nc1cccc(-c2ccnc3cc(-c4ccncc4)nn23)c1)Nc1ccc(Cl)c(C(F)(F)F)c1 [Example 133, N-[4-chloro-3-(trifluoromethyl)phenyl]-N′-[3-(2-pyridin-4-ylpyrazolo[1,5-a]pyrimidin-7-yl)phenyl]urea] | 30 | – | – | 98 |
| Cc1ccc(C(=O)Nc2cccc(-c3ccnc4cc(-c5ccncc5)nn34)c2)cc1C(F)(F)F [Example 134, 4-methyl-N-[3-(2-pyridin-4-ylpyrazolo[1,5-a]pyrimidin-7-yl)phenyl]-3-(trifluoromethyl)benzamide] | 40 | 96 | – | – |
| O=C(Nc1cccc(-c2ccnc3cc(-c4ccc(CO)cc4)nn23)c1)c1cccc(C(F)(F)F)c1 [Example 135, N-(3-{2-[4-(hydroxymethyl)phenyl]pyrazolo[1,5-a]pyrimidin-7-yl}phenyl)-3-(trifluoromethyl)benzamide] | > 10000 | 32 | – | – |
| COc1ccc(-c2cc3nccc(-c4cccc(NC(=O)c5cccc(C(F)(F)F)c5)c4)n3n2)cc1 [Example 136, N-{3-[2-(4-methoxyphenyl)pyrazolo[1,5-a]pyrimidin-7-yl]phenyl}-3-(trifluoromethyl)benzamide] | – | 35 | > 10000 | – |
| O=C(Nc1cccc(-c2ccnc3cc(-c4cccc(C(F)(F)F)c4)nn23)c1)c1cccc(C(F)(F)F)c1 [Example 137, 3-(trifluoromethyl)-N-(3-{2-[3-(trifluoromethyl)phenyl]pyrazolo[1,5-a]pyrimidin-7-yl}phenyl)benzamide] | > 10000 | – | – | – |
| CC(C)(C)c1cc2nccc(-c3cccc(NC(=O)c4cccc(C(F)(F)F)c4)c3)n2n1 [Example 138, N-[3-(2-tert-butylpyrazolo[1,5-a]pyrimidin-7-yl)phenyl]-3-(trifluoromethyl)benzamide] | > 10000 | 46 | – | – |
| O=C(Nc1cccc(-c2ccnc3cc(-c4ccc(F)cc4)nn23)c1)c1cccc(C(F)(F)F)c1 [Example 139, N-{3-[2-(4-fluorophenyl)pyrazolo[1,5-a]pyrimidin-7-yl]phenyl}-3-(trifluoromethyl)benzamide] | > 10000 | 35 | – | – |
| CCOCOCc1ccc(-c2cc3nccc(-c4cccc(NC(=O)c5cccc(C(F)(F)F)c5)c4)n3n2)cc1 [Example 140, N-[3-(2-{4-[(ethoxymethoxy)methyl]phenyl}pyrazolo[1,5-a]pyrimidin-7-yl)phenyl]-3-(trifluoromethyl)benzamide] | > 10000 | 39 | – | – |
